Data as given in the NIST ThermoML archive (doi:10.1016/j.tca.2006.10.008).
Where “and” joins values, the source holds several entries; their conditions need not be identical. Equal values may be shown once. ± gives the expanded uncertainty stated by the source.

Details: for vapor or sublimation pressure: Transpiration method; for Triple point temperature: DTA

F[B-](F)(F)F.[Na+] [sodium tetrafluoroborate]
vapor or sublimation pressure
Details | Crystal 1 | Crystal 2
483 K | – | 0.0002215 ± 1.1e-05 kPa
493 K | – | 0.0003008 ± 1.5e-05 kPa
498 K | – | 0.0003479 ± 1.7e-05 kPa
503 K | – | 0.0003963 ± 2e-05 kPa
519 K | 0.0006401 ± 3.2e-05 kPa | 0.0006401 ± 3.2e-05 kPa
523 K | 0.0008727 ± 4.4e-05 kPa | –
533 K | 0.001184 ± 5.9e-05 kPa | –
544 K | 0.001662 ± 8.3e-05 kPa | –
545 K | 0.001475 ± 7.4e-05 kPa | –
554 K | 0.001848 ± 9.2e-05 kPa [middle of 5 runs] | –
566 K | 0.002561 ± 0.00013 kPa | –
575 K | 0.002638 ± 0.00013 kPa | –
576 K | 0.003027 ± 0.00015 kPa | –
580 K | 0.003513 ± 0.00018 kPa | –
586 K | 0.003838 ± 0.00019 kPa | –
602 K | 0.003513 ± 0.00018 kPa | –
612 K | 0.005891 ± 0.00029 kPa | –
622 K | 0.008782 ± 0.00044 kPa | –
663 K | 0.01582 ± 0.00079 kPa | –

Details | Triple point temperature [K]
Crystal 2 | 519 ± 1

F[B-](F)(F)F.[Cs+] [cesium tetrafluoroborate]
Crystal 1
Details | vapor or sublimation pressure
586 K | 3.63e-05 ± 1.9e-06 kPa
592 K | 4.17e-05 ± 2.2e-06 kPa
602 K | 6.62e-05 ± 3.4e-06 kPa
608 K | 8.43e-05 ± 4.3e-06 kPa
611 K | 8.34e-05 ± 4.3e-06 kPa
623 K | 0.0001414 ± 7.2e-06 kPa
627 K | 0.0001287 ± 6.5e-06 kPa [middle of 4 runs]
634 K | 0.0001822 ± 9.2e-06 kPa
648 K | 0.0002611 ± 1.3e-05 kPa
654 K | 0.0003472 ± 1.7e-05 kPa
666 K | 0.0003572 ± 1.8e-05 kPa
682 K | 0.0005593 ± 2.8e-05 kPa
692 K | 0.0007727 ± 3.9e-05 kPa
703 K | 0.0008954 ± 4.5e-05 kPa
705 K | 0.000949 ± 4.8e-05 kPa

Details | Triple point temperature [K]
Crystal 2 | 442 ± 1

F[B-](F)(F)F.[Rb+] [rubidium tetrafluoroborate]
Crystal 1
Details | vapor or sublimation pressure
550 K | 3.93e-05 ± 2.1e-06 kPa
555 K | 5.32e-05 ± 2.8e-06 kPa
566 K | 6.47e-05 ± 3.3e-06 kPa
576 K | 9.73e-05 ± 5e-06 kPa
581 K | 9.94e-05 ± 5.1e-06 kPa
592 K | 0.0001394 ± 7.1e-06 kPa
602 K | 0.0001641 ± 8.3e-06 kPa
613 K | 0.0002173 ± 1.1e-05 kPa
622 K | 0.0002867 ± 1.4e-05 kPa and 0.000287 ± 1.5e-05 kPa and 0.0002854 ± 1.4e-05 kPa
629 K | 0.0003005 ± 1.5e-05 kPa
641 K | 0.0004209 ± 2.1e-05 kPa
655 K | 0.0005109 ± 2.6e-05 kPa
676 K | 0.0007892 ± 4e-05 kPa
697 K | 0.001082 ± 5.4e-05 kPa

Details | Triple point temperature [K]
Crystal 2 | 527 ± 1
